Where a name gives a salt, the structure may show the parent alone. Non-standard residues stand in square brackets, D forms with d. Residues, ends and D or L forms follow the SMILES beside them. βAla = NCCC(=O)O
Tests used:
[1] = tested on: C. tropicalis ATCC 750; assay: Biofilm formation on bone cement (Palacos r) model implants in infected femur head; design: species or system Candida tropicalis; conditions: cements implanted inside infected holes; 2 days; single experiment, / = two implants
Excerpt: (§1) The poly(methyl methacrylate)-based bone cement with or without AMPs was implanted either inside infected holes or inside non-infected holes. In the latter case, the microbes infiltrated towards the implant from a hole made between them at roughly equal distance from each (Figure 3). This would simulate the authentic situation in which the pathogens can infect an orthopaedic implant by spreading through the bloodstream or contiguously from areas of infection. We evaluated the experiments on the basis of the amounts of microbes released from the biofilms supposedly formed on the surfaces of the implants that were removed from the infected bone samples.
(§2) The bone samples with bored holes inside were prepared and handled as above. The bone cement (Palacos®r, Hereaus Medical GmbH, Wehrheim, Germany) with AMP incorporated was prepared by swift and thorough mixing of the polymer powder component (poly-methylacrylate, methyl methacrylate, 125 mg) and AMP (10 mg) or antibiotic (10 mg) with the liquid monomer (methyl methacrylate, N,N-dimethyl-p-toluidine, hydroquinone and colorant E141, 70 μL). The resulting elastic paste was pressed using a 2 mL plastic syringe into two bored holes, where it polymerized and solidified. The paste without peptide for filling of the remaining two holes was prepared similarly by mixing the powder component (125 mg) and liquid component (68 μL). […]

[2] = tested on: E. faecalis clinical isolate (Motol); assay: microbe, parasite or virus in culture; assay type: cell-based
Method: (§3) Femur heads (ca. 70 pieces) taken from patients during hip replacement surgery were periodically purchased in the period between 2014–2017 as discarded from the bone tissue bank at University Hospital in Motol, Prague, Czech Republic. The reason for the replacements by artificial prosthesis was the worn out cartilage on the surface of their heads. Bone samples were stored at −80 °C under standard conditions of certified tissue banks. In the laboratory, they were kept at +5 °C overnight and then at room temperature for several hours before they could be used for the experiments. The experiments with this material were approved by the Ethics Committee for Multi-Centric Clinical Trials of the University Hospital Motol, Reference No: EK-655/15. Methicillin-resistant S. aureus (MRSA 6271) ATCC 43300 and P. aeruginosa (5482) ATCC 27853 were purchased from the Czech National Collection of Type Cultures, National Institute of Public Health, Prague, Czech Republic. Methicillin-resistant S. aureus (MRSA (L)) and P. aeruginosa (L) were obtained as multi-resistant clinical isolates from Liberec Regional Hospital, Liberec, Czech Republic. Methicillin-resistant S. aureus (MRSA (M)), E. faecalis and S. epidermidis were obtained as clinical isolates from University Hospital in Motol, Prague. Candida albicans (F7-39/IDE99) came from the mycological collection of the Faculty of Medicine, Palacky University, Olomouc, Czech Republic. C. albicans ATCC MYA-2876, C. tropicalis ATCC 750 and C. glabrata DSY565 were kindly provided by Dr. Hana Sychrová from the Institute of Physiology, Academy of Sciences of the Czech Republic, Prague. Vancomycin hydrochloride, gentamicin sulfate, ceftriaxone disodium salt, amphotericin B, fluconazole, and clotrimazole were obtained from Sigma-Aldrich, Prague, Czech Republic.
(§4) MIC values for peptides were established by observing growth of treated bacteria in HONEYCOMB 100-well microtiter plates (Helsinki, Finland) using a Bioscreen C instrument (Oy Growth Curves, Helsinki, Finland) as previously described. Haemolytic activity of peptides expressed as the concentration of a peptide required for lysis of 50% of human erythrocytes in the assay (LC50) was measured using a Tecan infinite M200 PRO reader (Tecan Austria GmbH, Grödig, Austria). Blood samples for determining haemolytic activity were obtained from healthy volunteers.

[3] = tested on: MRSA 6271 (ATCC 43300); assay: microbe, parasite or virus in culture; assay type: cell-based
Method: as §3, §4

[4] = tested on: MRSA clinical isolate from Liberec Regional Hospital (MRSA (L)); assay: microbe, parasite or virus in culture; assay type: cell-based
Method: as §3, §4

[5] = tested on: MRSA clinical isolate from University Hospital in Motol (MRSA (M)); assay: microbe, parasite or virus in culture; assay type: cell-based
Method: as §3, §4

[6] = tested on: P. aeruginosa (5482) ATCC 27853; assay: microbe, parasite or virus in culture; assay type: cell-based
Method: as §3, §4

[7] = tested on: P. aeruginosa clinical isolate from Liberec Regional Hospital; assay: microbe, parasite or virus in culture; assay type: cell-based
Method: as §3, §4

[8] = tested on: S. epidermidis clinical isolate (Motol); assay: microbe, parasite or virus in culture; assay type: cell-based
Method: as §3, §4

[9] = tested on: MRSA clinical isolate from University Hospital in Motol (MRSA (M)); assay: Biofilm formation on bone cement (Palacos r) model implants in infected femur head; design: species or system Staphylococcus aureus; conditions: cements implanted inside infected holes; Palacos r with peptide or antibiotic; 2 days; single experiment, / = two implants
Excerpt: as §1, §2

[10] = tested on: E. faecalis; assay: as above; design: species or system Enterococcus faecalis; conditions: cements implanted inside infected holes; 2 days; single experiment
Excerpt: as §1, §2

[11] = tested on: Candida albicans; assay type: cell-based; conditions: Bioscreen C; at least three times in duplicates
Method: as §3, §4

[12] = tested on: human erythrocytes; assay: Haemolysis assay; assay type: cell-based; conditions: concentration causing lysis of 50% of human red blood cells; at least three times in duplicates
Method: as §4

[13] = tested on: P. aeruginosa 5482; assay: Experimental model of bone infection (human femur head, ChronOS Inject carrier); design: species or system Pseudomonas aeruginosa; conditions: ChronOS Inject 200 mg blended with 10 mg peptide; 2 days at room temperature; single experiment on one femoral head
Method: We usually drilled three to four holes into the spongy part of each bone sample (as space allowed) and then filled the holes with the suspension of microbes (Figure 1a). The next day, the foci of the infection set up in the holes were treated (i) with carrier alone as a control, (ii) with carrier blended with AMP, or (iii) in some cases with a carrier blended with an antibiotic for comparison (Figure 1b). The results of infection eradication were evaluated after two days by counting the bacterial colonies (Figures S1–S3 as illustrative examples) found in the swab taken from each hole after the fillings were removed (Figure 1c).
Three to four holes ca 4 mm in diameter and 8 mm deep were drilled using a surgical spoon at the side of the resection into the spongy part of the femur head. This bone was placed into a beaker cushioned with sterile gauze, which was then drenched with sterile physiological solution. The suspension of selected bacteria (S. aureus, S. epidermidis, P. aeruginosa) in the concentration of 10^9 colony forming units (CFU)/mL in Luria Bertani (LB) medium and E. faecalis in brain-heart infusion (BHI) medium was consecutively infused into each hole in the bone while taking care not to overfill the holes (Figure 1a). […] Following overnight incubation, the numbers of bacterial colonies were counted. The bacterial load was expressed as CFU per hole. […]

[14] = clinical isolate Motol, Bioscreen C, at least three times in duplicates
[15] = clinical isolate Liberec, Bioscreen C, at least three times in duplicates

Structure (SMILES): C[C@@H]1[C@H](O)[C@@H](C)/C=C/C=C/C=C/C=C/C=C/C=C/C=C/[C@H](O[C@@H]2O[C@H](C)[C@@H](O)[C@H](N)[C@@H]2O)C[C@@H]2O[C@](O)(C[C@@H](O)C[C@@H](O)[C@H](O)CC[C@@H](O)C[C@@H](O)CC(=O)O[C@H]1C)C[C@H](O)[C@H]2C(=O)O [Amphotericin B, amphotericin B]
- CFU/Implant, * C. tropicalis [1]: 1.3 × 10^6 CFU/implant

Structure (SMILES): CN[C@H](CC(C)C)C(=O)N[C@H]1C(=O)N[C@@H](CC(N)=O)C(=O)N[C@H]2C(=O)N[C@H]3C(=O)N[C@H](C(=O)N[C@H](C(=O)O)c4cc(O)cc(O)c4-c4cc3ccc4O)[C@H](O)c3ccc(c(Cl)c3)Oc3cc2cc(c3O[C@@H]2O[C@H](CO)[C@@H](O)[C@H](O)[C@H]2O[C@H]2C[C@](C)(N)[C@H](O)[C@H](C)O2)Oc2ccc(cc2Cl)[C@H]1O [Vancomycin, Vancomycin hydrochloride, reference compound]
- MIC ([2]; Enterococcus faecalis, read-out: Antimicrobial Activity MIC, E. f. b): 1.3 µM
- MIC ([3]; Staphylococcus aureus, read-out: Antimicrobial Activity MIC, MRSA 6271): 0.9 µM
- MIC ([4]; Staphylococcus aureus, MRSA, read-out: Antimicrobial Activity MIC, MRSA a): 1.1 µM
- MIC ([5]; Staphylococcus aureus, MRSA, read-out: Antimicrobial Activity MIC, MRSA b): 1.1 µM
- MIC ([6]; Pseudomonas aeruginosa, ATCC27853, read-out: Antimicrobial Activity MIC, P. a. 5482): > 200 µM
- MIC ([7]; Pseudomonas aeruginosa, read-out: Antimicrobial Activity MIC, P. a. a): > 320 µM
- MIC ([8]; Staphylococcus epidermidis, read-out: Antimicrobial Activity MIC, S. e. b): 1.5 µM
- CFU/Implant, *MRSA b [9]: 4.0 × 10^6 CFU/implant
- CFU/Implant, *E. f. [10]: 4.0 × 10^6 CFU/implant

Structure (SMILES): CC[C@H](C)[C@H](NC(=O)[C@H](CCCCN)NC(=O)[C@H](CCCCN)NC(=O)[C@H](CC(C)C)NC(=O)[C@H](CC(C)C)NC(=O)[C@H](CCCCN)NC(=O)[C@H](CCSC)NC(=O)[C@H](Cc1c[nH]c2ccccc12)NC(=O)[C@H](CCCCN)NC(=O)CCN)C(=O)N[C@@H](CC(C)C)C(=O)N[C@@H](CCCCN)C(N)=O [XI] (H-[βAla]KWMKLLKKILK-NH2; N-terminus assumed)
- Antimicrobial Activity MIC, E. f. b [2, 14]: 59.0 µmol/L
- Antimicrobial Activity MIC, MRSA 6271 ([3]; growth in 100-well microtiter plates, Bioscreen C, tested at least three times in duplicates): 11.3 µmol/L
- Antimicrobial Activity MIC, MRSA a [4, 15]: 5.7 µmol/L
- Antimicrobial Activity MIC, MRSA b [5, 14]: 10.0 µmol/L
- Antimicrobial Activity MIC, P. a. 5482 ([6]; Bioscreen C, at least three times in duplicates): 2.8 µmol/L
- Antimicrobial Activity MIC, P. a. a [7, 15]: 7.0 µmol/L
- Antimicrobial Activity MIC, S. e. b [8, 14]: 2.8 µmol/L
- Antimicrobial Activity MIC, C. a. [11]: 11.3 µmol/L
- Haemolytic Activity LC50 [12]: 270 µmol/L
- Colony Forming Units (CFU)/Hole, P. a. 5482 [13]: 2.0 × 10^5 CFU/hole

Reference: PMC5874716, “Antimicrobial Peptides for Topical Treatment of Osteomyelitis and Implant-Related Infections: Study in the Spongy Bone” (Pharmaceuticals, 2018)
